Earlier results, collected in patent publication US20260034185A1, “POLYPODYIUM LEUCOTOMOS AND LARIX DECIDUA FOR USE IN THE PREVENTION OF DAMAGE FROM UVA, UVB, UVC AND/OR IR RAYS” (Unifarco S.p.A., priority 2022, published 2026).

Biological target: T1, caspase-1 (Homo sapiens, UniProt P29466)
T1 construct: literature Promega G9951
T1 sequence (P29466 120-297 limits assumed): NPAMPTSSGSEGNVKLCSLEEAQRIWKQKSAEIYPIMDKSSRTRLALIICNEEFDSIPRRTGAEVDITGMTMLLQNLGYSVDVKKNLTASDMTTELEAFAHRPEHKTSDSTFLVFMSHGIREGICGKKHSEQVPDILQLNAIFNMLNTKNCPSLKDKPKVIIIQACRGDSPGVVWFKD
T1 sequence (P29466 317-404 limits assumed): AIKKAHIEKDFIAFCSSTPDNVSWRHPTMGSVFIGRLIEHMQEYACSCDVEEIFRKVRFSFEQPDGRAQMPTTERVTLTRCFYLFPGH
Details: inhibitor included in the Caspase-Glo 1 kit; does not substantially inhibit cross-reactive caspases

- inhibition of caspase-1 activity: 99%
Substance: Ac-YVAD-CHO
